Data taken from paper PMC6121530, “Synthesis, Biological Evaluation and Molecular Docking of Novel Indole-Aminoquinazoline Hybrids for Anticancer Properties” (International Journal of Molecular Sciences, 2018).

Molecular target: T1, epidermal growth factor receptor tyrosine kinase (EGFR-TK) (Homo sapiens, UniProt P00533)
T1 construct: purified Epidermal Growth Factor Receptor (Sigma-Aldrich)
Assay: ELISA kinase inhibition assay with purified EGFR
Format: biochemical

T1 sequence (P00533 25-1210): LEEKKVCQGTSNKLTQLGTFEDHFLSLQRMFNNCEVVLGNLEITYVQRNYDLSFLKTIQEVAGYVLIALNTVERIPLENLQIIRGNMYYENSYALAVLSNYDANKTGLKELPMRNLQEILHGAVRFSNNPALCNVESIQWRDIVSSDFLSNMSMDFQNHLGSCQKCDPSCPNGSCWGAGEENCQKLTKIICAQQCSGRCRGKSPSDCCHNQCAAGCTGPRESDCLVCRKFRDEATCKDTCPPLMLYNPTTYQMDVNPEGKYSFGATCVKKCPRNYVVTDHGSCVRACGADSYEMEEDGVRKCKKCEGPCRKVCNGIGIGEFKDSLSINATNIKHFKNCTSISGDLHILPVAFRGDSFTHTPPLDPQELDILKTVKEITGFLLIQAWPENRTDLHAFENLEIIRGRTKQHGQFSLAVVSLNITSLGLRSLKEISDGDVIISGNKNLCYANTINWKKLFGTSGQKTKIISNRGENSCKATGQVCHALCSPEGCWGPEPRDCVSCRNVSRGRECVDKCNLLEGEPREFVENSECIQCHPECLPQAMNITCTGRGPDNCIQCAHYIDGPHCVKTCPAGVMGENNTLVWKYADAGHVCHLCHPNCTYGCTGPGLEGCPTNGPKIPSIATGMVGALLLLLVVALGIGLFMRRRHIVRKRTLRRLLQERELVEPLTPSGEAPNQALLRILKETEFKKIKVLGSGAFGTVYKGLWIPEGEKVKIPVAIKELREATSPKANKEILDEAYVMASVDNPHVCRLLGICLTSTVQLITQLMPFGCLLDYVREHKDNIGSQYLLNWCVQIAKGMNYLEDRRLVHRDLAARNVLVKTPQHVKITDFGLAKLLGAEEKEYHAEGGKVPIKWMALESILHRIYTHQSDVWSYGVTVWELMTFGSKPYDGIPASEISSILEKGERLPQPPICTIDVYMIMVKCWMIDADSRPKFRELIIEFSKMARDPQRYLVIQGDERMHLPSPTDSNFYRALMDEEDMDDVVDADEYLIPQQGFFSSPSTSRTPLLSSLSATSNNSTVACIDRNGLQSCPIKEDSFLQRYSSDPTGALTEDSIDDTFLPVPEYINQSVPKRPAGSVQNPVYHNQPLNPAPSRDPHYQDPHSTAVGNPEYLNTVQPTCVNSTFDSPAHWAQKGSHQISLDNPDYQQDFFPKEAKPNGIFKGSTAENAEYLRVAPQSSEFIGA

## Fc1ccc(-c2nc(Nc3cc(Br)cc4cc(-c5ccc(F)cc5)[nH]c34)c3ccccc3n2)cc1 [4f, N-(5-Bromo-2-(4-fluorophenyl)-1H-indol-7-yl)-2-(4-fluorophenyl)quinazolin-4-amine]
  IC50: 52.5 nM
